# Data published in PubChem BioAssay (NCI).
#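 In this assay, cells in 96-well plates receive the compound at five concentrations for 48 hours. Endpoints are linearly interpolated between the surrounding concentrations. GI50 = concentration required for 50% inhibition of growth. Definition used: TGI = concentration required for complete inhibition of growth.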
# Legend:
# Test in all cases: inhibition of tumour cell growth, NCI panel, 48 h
# HCC-2998 colon = tested on: HCC-2998 colon
# HL-60(TB) leukemia = tested on: HL-60(TB) leukemia
# HT29 colon = tested on: HT29 colon
# MALME-3M melanoma = tested on: MALME-3M melanoma
# MDA-MB-231 breast = tested on: MDA-MB-231 breast
# OVCAR-4 ovarian = tested on: OVCAR-4 ovarian
# RPMI-8226 leukemia = tested on: RPMI-8226 leukemia
# SF-539 CNS = tested on: SF-539 CNS
# SR leukemia = tested on: SR leukemia
# MOLT-4 leukemia = tested on: MOLT-4 leukemia
SMILES,GI50 (HCC-2998 colon) [µM],TGI (HCC-2998 colon) [µM],GI50 (HL-60(TB) leukemia) [µM],TGI (HL-60(TB) leukemia) [µM],GI50 (HT29 colon) [µM],TGI (HT29 colon) [µM],GI50 (MALME-3M melanoma) [µM],TGI (MALME-3M melanoma) [µM],GI50 (MDA-MB-231 breast) [µM],TGI (MDA-MB-231 breast) [µM],GI50 (OVCAR-4 ovarian) [µM],TGI (OVCAR-4 ovarian) [µM],GI50 (RPMI-8226 leukemia) [µM],TGI (RPMI-8226 leukemia) [µM],GI50 (SF-539 CNS) [µM],TGI (SF-539 CNS) [µM],TGI (SR leukemia) [µM],GI50 (MOLT-4 leukemia) [µM],TGI (MOLT-4 leukemia) [µM]
Cn1cc(-c2nn3cc(-c4cccs4)nc3s2)c2cc(F)ccc21,5.64,33.9,1.34,15.5,0.477,14.8,1.81,31.6,3.23,30.6,5.77,> 100,3.01,26.5,2.18,7.54,–,–,–
Cc1cccc(CC(C)(C)C)c1NC(=O)C(=O)C(C(=O)c1ccc2ccccc2c1)C1OC(=O)c2ccccc21 (stereo not drawn),–,25.2,–,–,–,51.6,–,27.4,–,–,–,> 100,–,> 100,–,11.8,> 100,–,–
Cn1c(COC(=O)NCCN2CCOCC2)nc2c(N3CCOCC3)nc(-c3ccccc3)nc21,1.62,3.41,0.521,4.03,0.35,1.66,1.56,3.02,1.3,2.88,1.11,2.53,–,–,1.35,2.68,–,0.972,5.96
COc1cc(CC(=O)c2ccc3c(c2)OCO3)cc(OC)c1OC,–,> 100,–,> 100,–,> 100,–,> 100,–,–,–,> 100,–,> 100,–,> 100,–,–,> 100
C#Cc1ccc(-n2c(/C=C/c3cc(OC)c(OC)c(OC)c3)nc3ncccc3c2=O)cc1,27.5,> 100,3.84,25.6,3.92,15.1,9.74,70.5,5.53,> 100,12,90.3,3.6,> 100,4.57,37.7,–,–,–
COc1ccc(-n2nc(C)c3c2N(C)C2(C)C[C@@H]4C3(C)[C@@H]3CC4(C2)N(C)c2c(c(C)nn2-c2ccc(OC)cc2)[C@H]3C)cc1 (stereo partly drawn),9.65,> 100,–,–,3.39,> 100,6.34,> 100,6.35,48.3,5.95,> 100,–,–,6.49,> 100,–,–,–
CCOC(=O)NNC(=O)NC12CC3CC(CC(C3)C1)C2,–,> 100,–,–,–,> 100,–,> 100,–,–,–,> 100,–,–,–,> 100,–,–,> 100
CCSc1nc(N)c2cnn(C)c2n1,25.4,92.1,52.1,> 100,58.4,> 100,33.6,> 100,25.1,71,81.2,> 100,37.5,> 100,36.1,> 100,–,59.9,> 100
COC1C(CO)OC(n2c3ccccc3c3c4c(c5c6ccccc6[nH]c5c32)C(=O)NC4=O)C(O)C1OC(=O)C(N)CCCCN (stereo not drawn),1.57,17.8,0.231,> 50,2.65,> 50,0.11,0.946,0.985,8,3.83,> 50,> 15.7,> 35.5,0.165,0.821,–,0.178,> 50
C=C(C)[C@@H]1CCC[C@]2(C(=O)O)CC[C@]3(C)[C@@H](CC[C@@H]4[C@@]5(C)C/C(=C/c6ccncc6)C(=O)C(C)(C)[C@@H]5CC[C@]43C)[C@@H]12,1.94,4.29,–,–,2.69,9.5,3.46,23.2,3.05,24.3,4.31,67.4,1.8,7.5,2.7,11.9,–,2.07,> 100
O=C1c2cccc3cccc(c23)C(=O)N1CCCN1CCN(CCCN2C(=O)c3cccc4cccc(c34)C2=O)CC1,–,> 100,–,> 100,–,> 100,–,> 100,–,–,–,> 100,–,> 100,–,> 100,–,–,> 100
COC(=O)C1CCC(=NC2c3ccccc3-c3ccccc32)N1 (stereo not drawn),–,> 100,–,> 100,–,> 100,–,> 100,–,–,–,> 100,–,> 100,–,–,–,–,> 100
